Here are results for 1 compound from ChEMBL document CHEMBL3751801, “Synthesis of novel polybrominated benzimidazole derivatives-potential CK2 inhibitors with anticancer and proapoptotic activity” (Bioorg Med Chem, 2016).

The subject of assay [1] is CCRF-CEM. Kind of assay: Cytotoxicity against human CCRF-CEM cells assessed as cell viability at 20 uM after 24 hrs by MTT assay. Format: functional. The settings on record: read-out: Activity.
Assay [2] addresses Homeodomain-interacting protein kinase 1 (Homo sapiens) (UniProt Q86Z02). The assay can be described thus: Inhibition of HIPK1 (unknown origin) assessed as enzyme activity at 5 uM. Also on record: scale not given: the % may be the effect or the level left.
Assay [3] relates to CCRF-CEM. Kind of assay: Induction of apoptosis in human CCRF-CEM cells assessed as viable cells at 10 uM after 24 hrs by annexinV and propidium iodide staining based FACS analysis (reference value: 96.4 +/- 1.2%). Format: functional. As to conditions: read-out: Activity.
For assay [4], the target named is Serine/threonine-protein kinase pim-1 (Homo sapiens) (UniProt P11309). The assay can be described thus: Inhibition of PIM1 (unknown origin) assessed as enzyme activity at 5 uM. On the set-up: scale not given: the % may be the effect or the level left.
The subject of assay [5] is MCF7. The assay can be described thus: Cytotoxicity against human MCF7 cells assessed as cell viability at 50 uM after 24 hrs by MTT assay. It is filed as functional. The settings on record: MCF7, 24 h, read-out: Activity.
For assay [6], the target named is Mitogen-activated protein kinase 3 (Homo sapiens) (UniProt P27361). Kind of assay: Inhibition of Erk1 (unknown origin) assessed as enzyme activity at 5 uM. On the set-up: scale not given: the % may be the effect or the level left.
Assay [7] has as its system CCRF-CEM. Kind of assay: Induction of apoptosis in human CCRF-CEM cells assessed as viable cells at 50 uM after 24 hrs by annexinV and propidium iodide staining based FACS analysis (reference value: 96.4 +/- 1.2%). It is filed as functional. As to conditions: read-out: Activity.
Assay [8] has as its target Casein kinase II subunit alpha (Homo sapiens, UniProt P68400). Kind of assay: Inhibition of recombinant human CK2alpha using RRRDDDSDDD substrate peptide by scintillation counter in presence of [32P]ATP.
The target in assay [9] is Casein kinase I isoform alpha (Homo sapiens) (UniProt P48729). The assay can be described thus: Inhibition of CK1-alpha1 (unknown origin) assessed as enzyme activity at 5 uM. Also on record: scale not given: the % may be the effect or the level left.
Assay [10] relates to CCRF-CEM. Kind of assay: Induction of apoptosis in human CCRF-CEM cells assessed as early apoptotic cells at 50 uM after 24 hrs by annexinV and propidium iodide staining based FACS analysis (reference value: 1.5 +/- 0.8%). It is filed as functional.
Assay [11] relates to CCRF-CEM. Kind of assay: Induction of apoptosis in human CCRF-CEM cells assessed as necrotic cells at 10 uM after 24 hrs by annexinV and propidium iodide staining based FACS analysis (reference value: 0.1 +/- 0.1%). It is filed as functional.
For assay [12], the system named is CCRF-CEM. Kind of assay: Cytotoxicity against human CCRF-CEM cells assessed as cell viability at 10 uM after 24 hrs by MTT assay. Format: functional. As to conditions: read-out: Activity.
Assay [13] deals with T1, Serine/threonine-protein kinase D2 (Homo sapiens) (UniProt Q9BZL6).
T1 sequence (whole entry): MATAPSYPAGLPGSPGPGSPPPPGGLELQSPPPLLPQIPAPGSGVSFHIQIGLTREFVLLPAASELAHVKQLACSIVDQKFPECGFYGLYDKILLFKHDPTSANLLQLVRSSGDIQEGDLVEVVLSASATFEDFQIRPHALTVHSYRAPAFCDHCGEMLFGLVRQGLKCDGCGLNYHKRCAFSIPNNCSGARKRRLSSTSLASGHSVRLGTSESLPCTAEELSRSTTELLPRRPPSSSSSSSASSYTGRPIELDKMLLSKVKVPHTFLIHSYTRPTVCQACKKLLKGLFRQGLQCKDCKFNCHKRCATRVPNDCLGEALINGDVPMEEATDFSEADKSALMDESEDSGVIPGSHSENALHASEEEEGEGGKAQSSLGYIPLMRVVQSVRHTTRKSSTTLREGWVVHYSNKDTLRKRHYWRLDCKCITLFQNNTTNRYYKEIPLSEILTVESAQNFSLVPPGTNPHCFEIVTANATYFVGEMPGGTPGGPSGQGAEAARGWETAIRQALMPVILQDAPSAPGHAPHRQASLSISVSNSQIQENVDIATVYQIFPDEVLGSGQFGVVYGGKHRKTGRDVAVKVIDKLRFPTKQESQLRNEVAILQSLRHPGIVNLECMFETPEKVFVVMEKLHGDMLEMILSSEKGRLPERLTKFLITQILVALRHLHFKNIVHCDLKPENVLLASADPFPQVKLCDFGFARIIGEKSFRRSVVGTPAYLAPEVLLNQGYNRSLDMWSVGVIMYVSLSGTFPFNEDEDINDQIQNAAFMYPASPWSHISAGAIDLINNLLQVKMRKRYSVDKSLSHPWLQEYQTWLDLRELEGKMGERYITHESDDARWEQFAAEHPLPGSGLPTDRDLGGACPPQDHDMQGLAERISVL
Kind of assay: Inhibition of PRKD2 (unknown origin) assessed as enzyme activity at 5 uM. On the set-up: scale not given: the % may be the effect or the level left.

Assay [14] has as its target CDK2/Cyclin A2 (Homo sapiens) (UniProt P24941+P20248). Kind of assay: Inhibition of CDK2/CycA2 (unknown origin) assessed as enzyme activity at 5 microM. It is filed as protein-complex assay. On the set-up: scale not given: the % may be the effect or the level left.
In assay [15] the target is Dual specificity tyrosine-phosphorylation-regulated kinase 1A (Homo sapiens) (UniProt Q13627). The assay can be described thus: Inhibition of DYRK1A (unknown origin) assessed as enzyme activity at 5 uM. On the set-up: scale not given: the % may be the effect or the level left.
The species named for a further assay is Homo sapiens. The assay can be described thus: Inhibition of PKA (unknown origin) assessed as enzyme activity at 5 uM. Also on record: scale not given: the % may be the effect or the level left.
For assay [16], the system named is CCRF-CEM. Kind of assay: Cytotoxicity against human CCRF-CEM cells assessed as cell viability at 50 uM after 24 hrs by MTT assay. Format: functional. The settings on record: read-out: Activity.
Assay [17] addresses Casein kinase II (Homo sapiens) (UniProt P67870+P68400+P19784). As to conditions: CCRF-CEM, 5 uM.
For assay [18], the system named is CCRF-CEM. Kind of assay: Induction of apoptosis in human CCRF-CEM cells assessed as necrotic cells at 50 uM after 24 hrs by annexinV and propidium iodide staining based FACS analysis (reference value: 0.1 +/- 0.1%). Format: functional.
Assay [19] deals with CCRF-CEM. Kind of assay: Induction of apoptosis in human CCRF-CEM cells assessed as early apoptotic cells at 10 uM after 24 hrs by annexinV and propidium iodide staining based FACS analysis (reference value: 1.5 +/- 0.8%). It is filed as functional.
The subject of assay [20] is MCF7. Kind of assay: Cytotoxicity against human MCF7 cells assessed as cell viability at 20 uM after 24 hrs by MTT assay. It is filed as functional. As to conditions: MCF7, 24 h, read-out: Activity.
Assay [21] has as its system CCRF-CEM. Kind of assay: Induction of apoptosis in human CCRF-CEM cells assessed as late apoptotic cells at 10 uM after 24 hrs by annexinV and propidium iodide staining based FACS analysis (reference value: 1.9 +/- 0.5%). It is filed as functional.
Assay [22] deals with CCRF-CEM. Kind of assay: Induction of apoptosis in human CCRF-CEM cells assessed as late apoptotic cells at 50 uM after 24 hrs by annexinV and propidium iodide staining based FACS analysis (reference value: 1.9 +/- 0.5%). Format: functional.
The subject of assay [23] is MCF7. Kind of assay: Cytotoxicity against human MCF7 cells assessed as cell viability at 10 uM after 24 hrs by MTT assay. It is filed as functional. The settings on record: MCF7, 24 h, read-out: Activity.

In the case of `Cc1nc2c(Br)c(Br)c(Br)c(Br)c2[nH]1`, the viability at 20 µM was found to be 15% with CCRF-CEM [1] and 66% in the assay on MCF7 [20]. Besides, the Activity in [2] is 43%; in assay [4] it was 6%; in assay [6], 92%; in assay [9], 84%; in the assay with CCRF-CEM [10], 59.8%; with CCRF-CEM [11], 0.5%. Moreover, the Activity was determined as 14% in [13]; 20% in assay [14]; 17% in assay [15]; 113% in the assay listed under Homo sapiens; 0.4% with CCRF-CEM [18]; 47.3% in the assay on CCRF-CEM [19]. Moreover, the Activity in the assay with CCRF-CEM [21] came to 15.3%; in the assay with CCRF-CEM [22], 27.3%. Further, the figures for the viability at 10 µM in the assay on CCRF-CEM [3], in the assay with CCRF-CEM [12] and in the assay on MCF7 [23] were 36.7%, 29% and 76%, respectively. Also, the viability at 50 µM with MCF7 [5] was determined as 33%; in the assay with CCRF-CEM [7], 14.2%; with CCRF-CEM [16] it was 6%. For the same compound, in assay [8], the Ki was 1.11 µM. In assay [17], the inhibition turned out to be 20%.
